Results taken from ChEMBL document CHEMBL5528066, “Discovery of Novel N-(Anthracen-9-ylmethyl) Benzamide Derivatives as ZNF207 Inhibitors Promising in Treating Glioma” (J Med Chem, 2024).
Activity calls are given as the source filed them. No cut-off for these calls is given here.

Key:
Hs 683 = test: Antiproliferative activity against human Hs 683 cells assessed as inhibition of cell growth measured after 72 hrs by CCK-8 assay; assay type: functional, cell-based; conditions: Hs 683, 72 h
U-251 = test: Antiproliferative activity against human U-251MG cells assessed as inhibition of cell growth measured after 72 hrs by CCK-8 assay; assay type: functional, cell-based; conditions: U-251, 72 h
LN-229 [1] = test: Antiproliferative activity against human LN-229 cells assessed as inhibition of cell growth measured after 72 hrs by CCK-8 assay; assay type: functional, cell-based; conditions: LN-229, 72 h
H4 = test: Antiproliferative activity against human H4 cells assessed as inhibition of cell growth measured after 72 hrs by CCK-8 assay; assay type: functional, cell-based; conditions: H4, 72 h
[2] = molecular target: BUB3-interacting and GLEBS motif-containing protein ZNF207 (Homo sapiens, UniProt O43670); test: Binding affinity to human ZNF207 assessed as dissociation constant by SPR analysis
LN-229 [3] = test: Antitumor activity against human LN-229 cells xenografted in BALB/c nude mouse assessed as reduction in proportion of Ki-67 positive cells at 150 mg/kg, ip administered twice a week and measured after 49 days by immunohistochemistry analysis; assay type: functional, organism-based; conditions: time 49.0 day
LN-229-Luc = test: Antitumor activity against human Ln-229-Luc cells xenografted in BALB/c nude mouse assessed as increase in overall survival time at 150 mg/kg, ip administered twice a week and measured after 3 to 31 days; assay type: functional, organism-based; conditions: time 3-31 day
LN-229 [4] = test: Antitumor activity against human LN-229 cells xenografted in BALB/c nude mouse assessed as tumor growth inhibition at 150 mg/kg, ip administered twice a week and measured every 2 days for 49 days relative to control; assay type: functional; conditions: LN-229, 1176 h, time 49 day, read-out: TGI

BUB3-interacting and GLEBS motif-containing protein ZNF207, sequence (O43670 whole entry): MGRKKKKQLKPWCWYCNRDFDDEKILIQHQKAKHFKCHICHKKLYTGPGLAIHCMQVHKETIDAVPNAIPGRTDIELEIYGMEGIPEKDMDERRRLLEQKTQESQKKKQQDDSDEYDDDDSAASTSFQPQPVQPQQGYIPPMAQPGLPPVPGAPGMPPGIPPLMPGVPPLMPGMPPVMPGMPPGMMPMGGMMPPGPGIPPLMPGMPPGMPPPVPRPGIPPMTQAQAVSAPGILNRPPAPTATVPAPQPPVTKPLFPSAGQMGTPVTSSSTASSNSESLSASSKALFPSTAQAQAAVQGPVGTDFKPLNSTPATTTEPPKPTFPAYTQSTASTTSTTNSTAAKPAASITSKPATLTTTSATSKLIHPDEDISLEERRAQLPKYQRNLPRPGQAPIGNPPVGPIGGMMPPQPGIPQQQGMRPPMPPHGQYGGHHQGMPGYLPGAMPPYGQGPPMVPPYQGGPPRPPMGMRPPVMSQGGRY

| Structure (SMILES) | IC50 (Hs 683) [µM] | IC50 (U-251) [µM] | IC50 (LN-229 [1]) [µM] | IC50 (H4) [µM] | Kd [2] [µM] | Activity (LN-229 [3]) | Activity (LN-229-Luc) | inhibition in vivo at 150 mg/kg (LN-229 [4]) [%] |
| --- | --- | --- | --- | --- | --- | --- | --- | --- |
| N#CC1(C(=O)NCc2cccc(Cl)c2Cl)CC2c3ccccc3C1c1ccccc12 (racemic) | > 80 | > 80 | > 80 | > 80 | – | – | – | – |
| COc1cc(NC(=O)C2(C#N)CC3c4ccccc4C2c2ccccc23)cc(OC)c1 (racemic) | > 80 | > 80 | > 80 | > 80 | – | – | – | – |
| Cc1ccccc1NC(=O)C1(C#N)CC2c3ccccc3C1c1ccccc12 (racemic) | > 80 | > 80 | > 80 | > 80 | – | – | – | – |
| N#CC1(C(=O)NCCSc2ccccc2)CC2(Br)c3ccccc3C1c1ccccc12 (racemic) | 11.6 | 16.8 | 14.4 | 16.9 | – | – | – | – |
| N#CC1(C(=O)NCCc2cccc(F)c2)CC2c3ccccc3C1c1ccccc12 (racemic) | 46.6 | 40.5 | 33 | 50 | – | – | – | – |
| N#CC1(C(=O)Nc2ccc(F)cc2)CC2c3ccccc3C1c1ccccc12 (racemic) | > 80 | > 80 | > 80 | > 80 | – | – | – | – |
| N#CC1(C(=O)NCC2CCN(Cc3ccccc3)CC2)CC2(Br)c3ccccc3C1c1ccccc12 (racemic) | 14.9 | 15.7 | 5.94 | 3.32 | – | – | – | – |
| N#CC1(C(=O)NCC2CCN(Cc3ccc(F)cc3)CC2)CC2(Br)c3ccccc3C1c1ccccc12 (racemic) | > 80 | > 80 | > 80 | > 80 | – | – | – | – |
| N#CC1(C(=O)NCCCc2ccc(Br)cc2)CC2(Br)c3ccccc3C1c1ccccc12 (racemic) | 47.3 | 37.7 | 24.6 | 53.1 | – | – | – | – |
| N#CC1(C(=O)NCCc2cccc(Cl)c2)CC2c3ccccc3C1c1ccccc12 (racemic) | > 80 | 54.3 | 36.6 | 18.8 | – | – | – | – |
| N#CC1(C(=O)NCCc2ccc(Br)cc2)CC2(Br)c3ccccc3C1c1ccccc12 (racemic) | 8.43 | 30 | 9.73 | 10.3 | – | – | – | – |
| N#CC1(C(=O)Nc2ccc(N)cc2)CC2c3ccccc3C1c1ccccc12 (racemic) | > 80 | > 80 | > 80 | 61.7 | – | – | – | – |
| N#CC1(C(=O)NCCc2ccc3c(c2)OCO3)CC2c3ccccc3C1c1ccccc12 (racemic) | 44 | > 80 | 36.8 | > 80 | – | – | – | – |
| N#CC1(C(=O)NCCc2ccccc2F)CC2c3ccccc3C1c1ccccc12 (racemic) | > 80 | 38.1 | 49 | 26 | – | – | – | – |
| N#CC1(C(=O)NCc2ccccc2)CC2c3ccccc3C1c1ccccc12 (racemic) | > 80 | > 80 | > 80 | > 80 | – | – | – | – |
| O=C(NCCC1CCN(Cc2ccccc2)CC1)C1(Cl)CC2(Br)c3ccccc3C1c1ccccc12 (racemic) | 38.7 | 24.1 | 12.4 | 19.1 | – | – | – | – |
| N#CC1(C(=O)NCCc2ccc(F)cc2)CC2(Br)c3ccccc3C1(Br)c1ccccc12 (racemic) | > 80 | > 80 | > 80 | 54 | – | – | – | – |
| N#CC1(C(=O)NCCc2ccc([N+](=O)[O-])cc2)CC2c3ccccc3C1c1ccccc12 (racemic) | > 80 | 48.3 | 23.8 | 36.9 | – | – | – | – |
| N#CC1(C(=O)NCCc2ccc(F)cc2)CC2(CCl)c3ccccc3C1c1ccccc12 (racemic) | 52.8 | 34.9 | 60.2 | 32.6 | – | – | – | – |
| COc1ccc(NC(=O)C2(C#N)CC3c4ccccc4C2c2ccccc23)cc1C (racemic) | > 80 | > 80 | > 80 | > 80 | – | – | – | – |
| N#CC1(C(=O)NCCC2CCN(Cc3ccccc3)CC2)CC2c3ccccc3C1c1ccccc12 (racemic) | 19.1 | 35.9 | 11.6 | 26.6 | – | – | – | – |

| Structure (SMILES) | IC50 (Hs 683) [µM] | IC50 (U-251) [µM] | IC50 (LN-229 [1]) [µM] | IC50 (H4) [µM] | Kd [2] [µM] | Activity (LN-229 [3]) | Activity (LN-229-Luc) | inhibition in vivo at 150 mg/kg (LN-229 [4]) [%] |
| --- | --- | --- | --- | --- | --- | --- | --- | --- |
| N#CC1(C(=O)NCCc2ccc(F)cc2)CC2(CO)c3ccccc3C1c1ccccc12 (racemic) | 21.8 | 39.8 | 15 | 30.7 | – | – | – | – |
| N#CC1(C(=O)Nc2ccc([N+](=O)[O-])cc2)CC2c3ccccc3C1c1ccccc12 (racemic) | 26.4 | 13.5 | 19.4 | 25.3 | 2.4 | – | – | – |
| N#CC1(C(=O)NCCc2ccc(F)cc2)CC2(Br)c3ccccc3C1c1ccccc12 (racemic) | 19.8 | 21.4 | 14.6 | 15.3 | – | – | – | – |
| Cc1ccc(CCNC(=O)C2(C#N)CC3c4ccccc4C2c2ccccc23)cc1 (racemic) | 39.9 | > 80 | 60.8 | > 80 | – | – | – | – |
| N#CC1(C(=O)NCCC2CCN(Cc3ccc(F)cc3)CC2)CC2(Br)c3ccccc3C1c1ccccc12 (racemic) | 21.9 | 18.1 | 18.7 | 18 | – | – | – | – |
| N#CC1(C(=O)NCCc2ccccc2F)CC2(Br)c3ccccc3C1c1ccccc12 (racemic) | > 80 | > 80 | > 80 | > 80 | – | – | – | – |
| N#CC1(C(=O)NCCc2ccc(F)cc2)CC2c3ccccc3C1c1ccccc12 (racemic) | 43.6 | 52.3 | 32.5 | 35.2 | – | – | – | – |
| N#CC1(C(=O)NCCS(=O)(=O)Nc2ccc(F)cc2)CC2(Br)c3ccccc3C1c1ccccc12 (racemic) | 17.8 | 21.2 | 12.7 | 21.9 | – | – | – | – |
| N#CC1(C(=O)NCCC(=O)Nc2ccc(F)cc2)CC2(Br)c3ccccc3C1c1ccccc12 (racemic) | 12.6 | 49.8 | 14.6 | 15.8 | – | – | – | – |
| COc1cc(NC(=O)C2(C#N)CC3c4ccccc4C2c2ccccc23)cc(OC)c1OC (racemic) | > 80 | > 80 | > 80 | > 80 | – | – | – | – |
| N#CC1(C(=O)NCCS(=O)(=O)Nc2ccccc2)CC2(Br)c3ccccc3C1c1ccccc12 (racemic) | 15.2 | 23.2 | 26.6 | 22.7 | – | – | – | – |
| O=C(NCCc1ccc(F)cc1)C1(Cl)CC2(Br)c3ccccc3C1c1ccccc12 (racemic) | > 80 | > 80 | > 80 | > 80 | – | – | – | – |
| N#CC1(C(=O)NC2CCN(Cc3ccccc3)CC2)CC2(Br)c3ccccc3C1c1ccccc12 (racemic) | 11.3 | 25.1 | 7.36 | 9.84 | – | – | – | – |
| CC12CC(C#N)(C(=O)NCCc3ccc(F)cc3)C(c3ccccc31)c1ccccc12 (racemic) | 24.6 | 18.7 | 28.9 | 22.3 | – | – | – | – |
| N#CC1(C(=O)Nc2ccc3c(c2)OCO3)CC2c3ccccc3C1c1ccccc12 (racemic) | > 80 | 72.6 | 45.5 | 20 | – | – | – | – |
| N#CC1(C(=O)NCCS(=O)(=O)c2ccc(Cl)cc2)CC2(Br)c3ccccc3C1c1ccccc12 (racemic) | 10.4 | 23.5 | 9.14 | 15.3 | – | – | – | – |
| N#CC1(C(=O)NCCc2ccc(Cl)cc2)CC2(Br)c3ccccc3C1c1ccccc12 (racemic) | 23.1 | 24 | 7.85 | 25 | – | – | – | – |
| COc1ccc(NC(=O)C2(C#N)CC3c4ccccc4C2c2ccccc23)cc1 (racemic) | > 80 | > 80 | > 80 | > 80 | – | – | – | – |
| N#CC1(C(=O)NCCCc2ccccc2)CC2(Br)c3ccccc3C1c1ccccc12 (racemic) | > 80 | 45.8 | 19.8 | 49 | – | – | – | – |
| CC(=O)C12CC(C#N)(C(=O)NCCc3ccc(F)cc3)C(c3ccccc31)c1ccccc12 (racemic) | 20.7 | 18.8 | 29.5 | 24.7 | – | – | – | – |
| Cn1nnc2c(C(N)=O)ncn2c1=O [TEMOZOLOMIDE] | 47.2 | 43.5 | 54.1 | 47.9 | – | Active | Active | 69.6 |
